Assay results from article PMC8760635 (Analytical chemistry, 2021).
Where two headings read alike, the source gives them in different places.

Molecular target: recombinant His6-tagged human FABP5 (Homo sapiens, UniProt Q01469)
Experiment: Isothermal titration calorimetry
Format: binding

Chain of recombinant His6-tagged human FABP5 (Q01469 whole entry): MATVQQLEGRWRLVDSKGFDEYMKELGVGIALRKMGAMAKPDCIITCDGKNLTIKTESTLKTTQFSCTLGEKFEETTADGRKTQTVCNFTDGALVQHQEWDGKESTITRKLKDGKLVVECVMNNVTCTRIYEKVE

Kd (read-out: dissociation constant (Kd), ITC, 25 °C, 100 mM NaCl, 30 mM Tris (pH 7.5), 5% glycerol, one-binding-site model, ± error of the fit) | SMILES | Kd
– | O=C(O)C(F)(F)C(F)(F)C(F)(F)C(F)(F)C(F)(F)C(F)(F)C(F)(F)F [PFOA, perfluorooctanoic acid] | 77 ± 17 µM
167 ± 34 µM | O=P(O)(O)C(F)(F)C(F)(F)C(F)(F)C(F)(F)C(F)(F)C(F)(F)C(F)(F)C(F)(F)F [PFOPA, perfluorooctanephosphonic acid] | –
